{"source": "ChEMBL document CHEMBL4118146", "about": "“Design, synthesis and evaluation of substituted piperidine based KCNQ openers as novel antiepileptic agents” (Bioorg Med Chem Lett, 2018)", "key": {"[1]": {"biological_target": "T1, Potassium voltage-gated channel subfamily KQT member 2 (Homo sapiens, UniProt O43526)", "T1 sequence (O43526 whole entry)": "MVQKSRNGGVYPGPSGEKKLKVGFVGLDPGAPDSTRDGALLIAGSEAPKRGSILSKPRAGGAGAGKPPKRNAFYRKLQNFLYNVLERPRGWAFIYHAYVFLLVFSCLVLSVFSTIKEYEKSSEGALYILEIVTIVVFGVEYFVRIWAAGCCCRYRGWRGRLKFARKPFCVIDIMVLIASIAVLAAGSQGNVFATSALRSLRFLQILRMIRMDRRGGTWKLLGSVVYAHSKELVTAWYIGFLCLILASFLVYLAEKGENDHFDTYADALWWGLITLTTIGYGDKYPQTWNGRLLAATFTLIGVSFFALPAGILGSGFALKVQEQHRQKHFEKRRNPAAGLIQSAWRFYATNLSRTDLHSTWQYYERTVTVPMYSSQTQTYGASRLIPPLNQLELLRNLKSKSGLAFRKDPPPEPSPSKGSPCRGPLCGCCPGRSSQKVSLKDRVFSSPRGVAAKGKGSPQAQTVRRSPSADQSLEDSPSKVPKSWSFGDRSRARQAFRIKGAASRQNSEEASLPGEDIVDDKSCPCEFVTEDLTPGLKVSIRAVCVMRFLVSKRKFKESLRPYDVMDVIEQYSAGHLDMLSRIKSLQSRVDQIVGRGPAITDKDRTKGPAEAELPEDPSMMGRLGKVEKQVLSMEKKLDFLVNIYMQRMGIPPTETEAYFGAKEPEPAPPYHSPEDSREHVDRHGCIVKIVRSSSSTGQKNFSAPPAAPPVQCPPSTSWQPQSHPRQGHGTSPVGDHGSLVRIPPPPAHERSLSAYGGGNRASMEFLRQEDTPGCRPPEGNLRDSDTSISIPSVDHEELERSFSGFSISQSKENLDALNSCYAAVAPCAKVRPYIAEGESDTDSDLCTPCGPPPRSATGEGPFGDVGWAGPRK", "experiment": "Activation of KCNQ2 (unknown origin) expressed in CHO cells at 10 uM incubated for 20 mins in dark measured every 2 secs for 10 secs by fluorescence-based thallium influx assay relative to control", "type": "cell-based"}, "[2]": {"biological_target": "T1, Potassium voltage-gated channel subfamily KQT member 2", "experiment": "Activation of KCNQ2 (unknown origin) expressed in CHO cells at 10 uM after 10 mins by atomic absorption spectrophotometry-based Rb+ flow assay", "type": "cell-based"}, "[3]": {"experiment": "AUClast in Sprague-Dawley rat at 1 mg/kg, iv measured over 24 hrs by LC/MS/MS method", "type": "ADME, organism-based", "set-up": "dose 1 mg/kg, time 0 - last, route intravenous", "conditions": "in vivo"}, "[4]": {"experiment": "Apparent volume of distribution in Sprague-Dawley rat at 1 mg/kg, iv measured over 24 hrs by LC/MS/MS method", "type": "ADME, organism-based", "conditions": "in vivo, read-out: Vd(app)"}, "[5]": {"experiment": "MRTlast in Sprague-Dawley rat at 1 mg/kg, iv measured over 24 hrs by LC/MS/MS method", "type": "ADME, organism-based", "conditions": "in vivo"}, "[6]": {"biological_target": "T1, Potassium voltage-gated channel subfamily KQT member 2", "experiment": "Activation of KCNQ2 (unknown origin) expressed in CHO cells at 10 uM incubated for 20 mins in dark measured every 2 secs for 10 secs by fluorescence-based thallium influx assay relative to retigabine", "type": "cell-based"}, "[7]": {"experiment": "Clearance in Sprague-Dawley rat at 1 mg/kg, iv measured over 24 hrs by LC/MS/MS method", "type": "ADME, organism-based", "conditions": "in vivo"}, "[8]": {"experiment": "Cmax in Sprague-Dawley rat at 1 mg/kg, iv measured over 24 hrs by LC/MS/MS method", "type": "ADME, organism-based", "set-up": "dose 1 mg/kg, route intravenous", "conditions": "in vivo"}, "[9]": {"experiment": "Half life in Sprague-Dawley rat at 1 mg/kg, iv measured over 24 hrs by LC/MS/MS method", "type": "ADME, organism-based", "conditions": "in vivo"}, "[10]": {"experiment": "Tmax in Sprague-Dawley rat at 1 mg/kg, iv measured over 24 hrs by LC/MS/MS method", "type": "ADME, organism-based", "conditions": "in vivo"}, "[11]": {"biological_target": "T1, Potassium voltage-gated channel subfamily KQT member 2", "experiment": "Activation of KCNQ2 (unknown origin) expressed in CHO cells assessed as half-maximum activation voltage left shift at 10 uM by electrophysiological patch-clamp test", "type": "cell-based"}, "[12]": {"biological_target": "T1, Potassium voltage-gated channel subfamily KQT member 2", "experiment": "Activation of KCNQ2 (unknown origin) expressed in CHO cells assessed as conductivity (I/I0) at 10 uM by electrophysiological patch-clamp test", "type": "cell-based"}}}
{"smiles": "Cc1cc(N2CCC(c3ccccc3C(F)(F)F)CC2)cc(C)c1NC(=O)CC(C)(C)C", "values": [{"measurement": "Activity", "setting": "[1]", "value": -47.2, "unit": "%"}]}
{"smiles": "Cc1cc(N2CCC(=O)CC2)cc(C)c1NC(=O)CC(C)(C)C", "values": [{"measurement": "Activity", "setting": "[1]", "value": 110, "unit": "%"}, {"measurement": "EC50", "setting": "[2]", "value": 130, "unit": "nM"}, {"measurement": "Efficacy", "setting": "[2]", "value": 148, "unit": "%"}]}
{"smiles": "Cc1cc(N2CCC(c3ccncc3)CC2)cc(C)c1NC(=O)CC(C)(C)C", "values": [{"measurement": "Activity", "setting": "[1]", "value": 29.7, "unit": "%"}]}
{"smiles": "Cc1cc(CN2CCCCC2)cc(C)c1NC(=O)CC(C)(C)C", "values": [{"measurement": "Activity", "setting": "[1]", "value": 10.3, "unit": "%"}]}
{"smiles": "Cc1cc(N2CCC(c3cccc(F)c3)CC2)cc(C)c1NC(=O)CC(C)(C)C", "values": [{"measurement": "AUC(0-t) at 24 h", "setting": "[3]", "value": 8360, "unit": "ng·h/mL"}, {"measurement": "Activity", "setting": "[1]", "value": 152, "unit": "%"}, {"measurement": "Vd", "setting": "[4]", "value": 0.24, "unit": "L/kg"}, {"measurement": "MRT last at 24 h", "setting": "[5]", "value": 2.61, "unit": "h"}, {"measurement": "fold change (FC)", "setting": "[6]", "value": "3.7 to 42"}, {"measurement": "clearance", "setting": "[7]", "value": 2, "unit": "mL/min/kg"}, {"measurement": "Cmax", "setting": "[8]", "value": 9110, "unit": "ng/mL"}, {"measurement": "half-life", "setting": "[9]", "value": 1.38, "unit": "h"}, {"measurement": "Tmax", "setting": "[10]", "value": 1.8, "unit": "min"}, {"measurement": "EC50", "setting": "[2]", "value": 220, "unit": "nM"}, {"measurement": "Efficacy", "setting": "[2]", "value": 180, "unit": "%"}]}
{"smiles": "Cc1cc(N2CCC(c3cccc(Cl)c3)CC2)cc(C)c1NC(=O)CC(C)(C)C", "values": [{"measurement": "Activity", "setting": "[1]", "value": 168, "unit": "%"}, {"measurement": "fold change (FC)", "setting": "[6]", "value": "3.7 to 42"}]}
{"smiles": "Cc1cc(N2CCC(c3ccccc3)CC2)cc(C)c1NC(=O)CC(C)(C)C", "values": [{"measurement": "Activity", "setting": "[1]", "value": 0.63, "unit": "%"}]}
{"smiles": "Cc1cc(N2CCC(c3cccnc3)CC2)cc(C)c1NC(=O)CC(C)(C)C", "values": [{"measurement": "Activity", "setting": "[1]", "value": 42.6, "unit": "%"}]}
{"smiles": "Cc1cc(CN2CCCc3ccccc32)cc(C)c1NC(=O)CC(C)(C)C", "values": [{"measurement": "Activity", "setting": "[11]", "value": 13.3, "unit": "mV"}, {"measurement": "Activity", "setting": "[1]", "value": 139, "unit": "%"}, {"measurement": "Ratio", "setting": "[12]", "value": 2.76}, {"measurement": "fold change (FC)", "setting": "[6]", "value": 3.5}, {"measurement": "EC50", "setting": "[2]", "value": 330, "unit": "nM"}, {"measurement": "Efficacy", "setting": "[2]", "value": 160, "unit": "%"}]}
{"smiles": "Cc1cc(N2CCC(N3CCOCC3)CC2)cc(C)c1NC(=O)CC(C)(C)C", "values": [{"measurement": "Activity", "setting": "[1]", "value": 1.13, "unit": "%"}]}
{"smiles": "Cc1cc(C2CCCCN2)cc(C)c1NC(=O)CC(C)(C)C", "note": "(stereo not given)", "values": [{"measurement": "Activity", "setting": "[1]", "value": 0.83, "unit": "%"}]}
{"smiles": "Cc1cc(N2CCC(c3cccc(C(F)(F)F)c3)CC2)cc(C)c1NC(=O)CC(C)(C)C", "values": [{"measurement": "Activity", "setting": "[1]", "value": 149, "unit": "%"}, {"measurement": "fold change (FC)", "setting": "[6]", "value": "3.7 to 42"}]}
{"smiles": "Cc1cc(N2CCC(c3ccccc3F)CC2)cc(C)c1NC(=O)CC(C)(C)C", "values": [{"measurement": "Activity", "setting": "[1]", "value": 44, "unit": "%"}]}
{"smiles": "CCOC(=O)Nc1ccc(NCc2ccc(F)cc2)cc1N", "note": "[EZOGABINE]", "values": [{"measurement": "Activity", "setting": "[11]", "value": 40, "unit": "mV"}, {"measurement": "Activity", "setting": "[1]", "value": 40.2, "unit": "%"}, {"measurement": "Ratio", "setting": "[12]", "value": 2.12}, {"measurement": "EC50", "setting": "[2]", "value": 350, "unit": "nM"}, {"measurement": "Efficacy", "setting": "[2]", "value": 210, "unit": "%"}]}
{"smiles": "Cc1cc(N2CCC(c3ccc(Cl)cc3)CC2)cc(C)c1NC(=O)CC(C)(C)C", "values": [{"measurement": "Activity", "setting": "[1]", "value": 88.3, "unit": "%"}]}
{"smiles": "Cc1cc(N2CCN(c3cccc(C(F)(F)F)c3)CC2)cc(C)c1NC(=O)CC(C)(C)C", "values": [{"measurement": "Activity", "setting": "[1]", "value": 52.1, "unit": "%"}]}
{"smiles": "Cc1cc(N2CCCCC2)cc(C)c1NC(=O)CC(C)(C)C", "values": [{"measurement": "Activity", "setting": "[1]", "value": 69.8, "unit": "%"}]}
{"smiles": "Cc1cc(CN2CCc3ccccc3C2)cc(C)c1NC(=O)CC(C)(C)C", "values": [{"measurement": "Activity", "setting": "[1]", "value": 5.11, "unit": "%"}]}
{"smiles": "Cc1cc(N2CCC(C)(C)CC2)cc(C)c1NC(=O)CC(C)(C)C", "values": [{"measurement": "Activity", "setting": "[11]", "value": 25, "unit": "mV"}, {"measurement": "Activity", "setting": "[1]", "value": 100, "unit": "%"}, {"measurement": "Ratio", "setting": "[12]", "value": 1.53}, {"measurement": "EC50", "setting": "[2]", "value": 1580, "unit": "nM"}, {"measurement": "Efficacy", "setting": "[2]", "value": 210, "unit": "%"}]}
{"smiles": "Cc1cc(N2CCC(c3ccc(C(F)(F)F)cc3)CC2)cc(C)c1NC(=O)CC(C)(C)C", "values": [{"measurement": "Activity", "setting": "[1]", "value": 41.2, "unit": "%"}]}
{"smiles": "Cc1cc(N2CCN(c3ccccn3)CC2)cc(C)c1NC(=O)CC(C)(C)C", "values": [{"measurement": "Activity", "setting": "[1]", "value": 0.28, "unit": "%"}]}
{"smiles": "Cc1cc(N2CCC(N3CCCCC3)CC2)cc(C)c1NC(=O)CC(C)(C)C", "values": [{"measurement": "Activity", "setting": "[1]", "value": 0.02, "unit": "%"}]}
{"smiles": "Cc1cc(N2CCN(c3ccc(C(F)(F)F)cc3)CC2)cc(C)c1NC(=O)CC(C)(C)C", "values": [{"measurement": "Activity", "setting": "[1]", "value": 88.3, "unit": "%"}]}
